Data from patent US20240208934A1, “ULK1/2 INHIBITORS AND THEIR USE THEREOF” (LifeArc, priority 2021, published 2024).

System: ULK
Assay: ULK radiometric assay (33P incorporation onto MBP substrate, glass fiber capture filter)
Settings: ULK Biochemical activity; 20 uM ATP, 0.2 mg/mL MBP; averages of at least two independent experiments
Procedure: ULK activity was measured using a radiometric assay, to measure the incorporation of radiolabelled ^33P onto MBP substrate using a glass fiber capture filter method. Reaction conditions were 0.2 mg/mL MBP, 20 uM ATP (0.25 μCi/well), 50 mM Tris HCl, pH7.5, 10 mM MgCl2, 0.1% beta-mercaptoethanol, 0.1 mM EGTA, 0.01% BSA. Ten point Half log Compound dilution series were prepared in 100% DMSO and added to the reaction to give final assay concentration of 10% DMSO. Compounds were tested in duplicate and values normalized to 10% DMSO only controls. The data were fitted to a four parameter fit equation and the IC50 values shown are averages of at least two independent experiments.

Q: How did the IC50 turn out when O=C1CCCCN1CCCNc1nc(Nc2cc3c(cc2Cl)CNCC3)ncc1C(F)(F)F [Example 1, 1-(3-(2-(7-Chloro-1,2,3,4-tetrahydroisoquinolin-6-ylamino)-5(trifluoromethyl)pyrimidin-4-ylamino)propyl) piperidin-2-one] was run?
A: < 200 nM

Q: How did the IC50 turn out when CN1CCc2cc(Nc3ncc(C4CC4)c(NCCCN4CCCC4=O)n3)ccc2C1 [Example 9, 1-[3-[[5-cyclopropyl-2-[(2-methyl-3,4-dihydro-1H-isoquinolin-6-yl)amino]pyrimidin-4-yl]amino]propyl]pyrrolidin-2-one] was run?
A: < 200 nM

Q: With O=C1CCCCN1CCCNc1nc(Nc2ccc3c(c2)CCNC3)ncc1C(F)(F)F [Example 19, 1-[3-[[2-(1,2,3,4-Tetrahydroisoquinolin-6-ylamino)-5-(trifluoromethyl)pyrimidin-4-yl]amino]propyl]piperidin-2-one] as the molecule, how does the IC50 read?
A: < 200 nM

Q: With COc1cc2c(cc1Nc1ncc(C(F)(F)F)c(NCCC(=O)N3CCOCC3)n1)CNCC2 [Example 79, 3-[[2-[(6-Methoxy-1,2,3,4-tetrahydroisoquinolin-7-yl)amino]-5-(trifluoromethyl)pyrimidin-4-yl]amino]-1-morpholino-propan-1-one] as the molecule, how does the IC50 read?
A: 200 to 1000 nM

Q: Which IC50 does the source give for FC(F)(F)c1cnc(Nc2ccc3c(c2)CCNC3)nc1NCC1CNCCO1 (centres unmarked) [Example 63, N4-(morpholin-2-ylmethyl)-N2-(1,2,3,4-tetrahydroisoquinolin-6-yl)-5-(trifluoromethyl)pyrimidine-2,4-diamine] here?
A: < 200 nM

Q: For O=C1CCCN1CCCNc1nc(Nc2ccc3c(c2)CCNC3)ncc1C(F)(F)F [Example 66, 1-[3-[[2-(1,2,3,4-tetrahydroisoquinolin-6-ylamino)-5-(trifluoromethyl)pyrimidin-4-yl]amino]propyl]pyrrolidin-2-one], which IC50 is on record?
A: < 200 nM

Q: CN1CCC(O)(c2ccc(Nc3ncc(C4CC4)c(NCCCN4CCCCC4=O)n3)cc2)CC1 [Example 14, 1-(3-((5-Cyclopropyl-2-((4-(4-hydroxy-1-methylpiperidin-4-yl)phenyl)amino)pyrimidin-4-yl)amino)propyl)piperidin-2-one] was tested. Which IC50 did it give?
A: < 200 nM

Q: Which IC50 does the source give for O=C1CCCCN1CCCNc1nc(Nc2cc(S(=O)(=O)N3CCNCC3)cc3c2OCC3)ncc1C(F)(F)F [Example 52, 1-[3-[[2-[(5-Piperazin-1-ylsulfonyl-2,3-dihydrobenzofuran-7-yl)amino]-5-(trifluoromethyl)pyrimidin-4-yl]amino]propyl]piperidin-2-one] here?
A: 200 to 1000 nM

Q: Which IC50 does the source give for Fc1cccc(Nc2ncc(C(F)(F)F)c(NCCCN3CCCC3)n2)c1 [Example 5, N2-(3-fluorophenyl)-N4-(3-(pyrrolidin-1-yl)propyl)-5-(trifluoromethyl)pyrimidine-2,4-diamine] here?
A: ≥ 1000 nM

Q: Which IC50 does the source give for COc1cc2c(cc1Nc1ncc(C(F)(F)F)c(NCCCN3CCCC3=O)n1)CNCC2 [Example 81, 1-[3-[[2-[(6-Methoxy-1,2,3,4-tetrahydroisoquinolin-7-yl)amino]-5-(trifluoromethyl)pyrimidin-4-yl]amino]propyl]pyrrolidin-2-one] here?
A: < 200 nM

Q: Which IC50 does the source give for N[C@H]1CC[C@H](Nc2nc(Nc3ccc(N4CCOCC4)cc3)ncc2C(F)(F)F)CC1 [Example 88, N4-(4-aminocyclohexyl)-N2-(4-morpholinophenyl)-5-(trifluoromethyl)pyrimidine-2,4-diamine] here?
A: 200 to 1000 nM

Q: How did the IC50 turn out when COc1cc2c(cc1Nc1ncc(C3CC3)c(NCCCN3CCCCC3=O)n1)CNCC2 [Example 75, 1-[3-[[5-Cyclopropyl-2-[(6-methoxy-1,2,3,4-tetrahydroisoquinolin-7-yl)amino]pyrimidin-4-yl]amino]propyl]piperidin-2-one] was run?
A: 200 to 1000 nM

Q: For COc1cc(C(=O)N2CCOCC2)ccc1Nc1ncc(C(F)(F)F)c(NCCCN2CCCCC2=O)n1 [Example 38, 1-[3-[[2-[2-Methoxy-4-(morpholine-4-carbonyl)anilino]-5-(trifluoromethyl)pyrimidin-4-yl]amino]propyl]piperidin-2-one], which IC50 is on record?
A: ≥ 1000 nM

Q: COc1cc2c(cc1Nc1ncc(C(F)(F)F)c(NCCCN3CCCCC3=O)n1)CN(C)CC2 [Example 24, 1-[3-[[2-[(6-Methoxy-2-methyl-3,4-dihydro-1H-isoquinolin-7-yl)amino]-5-(trifluoromethyl)pyrimidin-4-yl]amino]propyl]piperidin-2-one] was tested. Which IC50 did it give?
A: < 200 nM

Q: For FC(F)(F)c1cnc(Nc2ccc3c(c2)CCNC3)nc1NCCc1cnc[nH]1 [Example 65, N4-[2-(1H-imidazol-5-yl)ethyl]-N2-(1,2,3,4-tetrahydroisoquinolin-6-yl)-5-(trifluoromethyl)pyrimidine-2,4-diamine], which IC50 is on record?
A: < 200 nM

Q: For O=C1CCCCN1CCCNc1nc(Nc2ccc3c(c2)CNCC3)ncc1C(F)(F)F [Example 83, 1-[3-[[2-(1,2,3,4-Tetrahydroisoquinolin-7-ylamino)-5-(trifluoromethyl)pyrimidin-4-yl]amino]propyl]piperidin-2-one], which IC50 is on record?
A: < 200 nM

Q: For CNCc1ccc(OC)c(Nc2ncc(C(F)(F)F)c(NCCCN3CCCCC3=O)n2)c1 [Example 60, 1-[3-[[2-[2-Methoxy-5-(methylaminomethyl)anilino]-5-(trifluoromethyl)pyrimidin-4-yl]amino]propyl]piperidin-2-one], which IC50 is on record?
A: < 200 nM

Q: With O=C1CCCCN1CCCNc1nc(Nc2cc(CN3CCOCC3)ccc2Cl)ncc1C(F)(F)F [Example 55, 1-[3-[[2-[2-Chloro-5-(morpholinomethyl)anilino]-5-(trifluoromethyl)pyrimidin-4-yl]amino]propyl]piperidin-2-one] as the molecule, how does the IC50 read?
A: 200 to 1000 nM

Q: Which IC50 does the source give for FC(F)(F)c1cnc(Nc2ccc(N3CCOCC3)cc2)nc1NCC1CNCCO1 (centres unmarked) [Example 90, N2-(4-morpholinophenyl)-N4-(morpholin-2-ylmethyl)-5-(trifluoromethyl)pyrimidine-2,4-diamine] here?
A: 200 to 1000 nM

Q: How did the IC50 turn out when COc1cc(C(=O)N(C)C)ccc1Nc1ncc(C(F)(F)F)c(NCCCN2CCCCC2=O)n1 [Example 40, 3-Methoxy-N,N-dimethyl-4-[[4-[3-(2-oxo-1-piperidyl)propylamino]-5-(trifluoromethyl)pyrimidin-2-yl]amino]benzamide] was run?
A: ≥ 1000 nM

Q: How did the IC50 turn out when FC(F)(F)c1cnc(Nc2cnn(C3CCNC3)c2)nc1NCc1cc[nH]n1 (centres unmarked) [Example 85, N4-(1H-pyrazol-3-ylmethyl)-N2-(1-pyrrolidin-3-ylpyrazol-4-yl)-5-(trifluoromethyl)pyrimidine-2,4-diamine] was run?
A: < 200 nM

Q: For O=C1CCCCN1CCCNc1nc(Nc2ccc3c(c2)COCC3)ncc1C(F)(F)F [Example 25, 1-[3-[[2-(Isochroman-7-ylamino)-5-(trifluoromethyl)pyrimidin-4-yl]amino]propyl]piperidin-2-one], which IC50 is on record?
A: < 200 nM

Q: COc1cc2c(cc1Nc1ncc(C(F)(F)F)c(NCCCn3cccn3)n1)CNCC2 [Example 73, N2-(6-methoxy-1,2,3,4-tetrahydroisoquinolin-7-yl)-N4-(3-pyrazol-1-ylpropyl)-5-(trifluoromethyl)pyrimidine-2,4-diamine] was tested. Which IC50 did it give?
A: ≥ 1000 nM

Q: Which IC50 does the source give for O=C1CCCCN1CCCNc1nc(Nc2cc3c(cc2C(F)(F)F)CCNC3)ncc1C(F)(F)F [Example 45, 1-[3-[[5-(Trifluoromethyl)-2-[[6-(trifluoromethyl)-1,2,3,4-tetrahydroisoquinolin-7-yl]amino]pyrimidin-4-yl]amino]propyl]piperidin-2-one] here?
A: < 200 nM

Q: Which IC50 does the source give for O=C1CCCCN1CCCNc1nc(Nc2cc(OCCN3CCOCC3)ccc2Cl)ncc1C(F)(F)F [Example 59, 1-[3-[[2-[2-Chloro-5-(2-morpholinoethoxy)anilino]-5-(trifluoromethyl)pyrimidin-4-yl]amino]propyl]piperidin-2-one] here?
A: 200 to 1000 nM

Q: Which IC50 does the source give for COc1cc2c(cc1Nc1ncc(C(F)(F)F)c(NC3CCN(C(C)=O)CC3)n1)CNCC2 [Example 68, 1-[4-[[2-[(6-Methoxy-1,2,3,4-tetrahydroisoquinolin-7-yl)amino]-5-(trifluoromethyl)pyrimidin-4-yl]amino]-1-piperidyl]ethanone] here?
A: ≥ 1000 nM

Q: For COc1cc(COC(C)C)ccc1Nc1ncc(C(F)(F)F)c(NCCCN2CCCCC2=O)n1 [Example 35, 1-[3-[[2-[4-(Isopropoxymethyl)-2-methoxy-anilino]-5-(trifluoromethyl)pyrimidin-4-yl]amino]propyl]piperidin-2-one], which IC50 is on record?
A: ≥ 1000 nM

Q: For CN1CCc2ccc(Nc3ncc(C4CC4)c(NCCCN4CCCCC4=O)n3)cc2C1 [Example 12, 1-(3-((5-Cyclopropyl-2-((2-methyl-1,2,3,4-tetrahydroisoquinolin-7-yl)amino)pyrimidin-4-yl)amino)propyl)piperidin-2-one], which IC50 is on record?
A: < 200 nM

Q: With COc1ccc(CN2CCOCC2)cc1Nc1ncc(C(F)(F)F)c(NCCCN2CCCCC2=O)n1 [Example 61, 1-[3-[[2-[2-Methoxy-5-(morpholinomethyl)anilino]-5-(trifluoromethyl)pyrimidin-4-yl]amino]propyl]piperidin-2-one] as the molecule, how does the IC50 read?
A: ≥ 1000 nM

Q: For COc1ccc(N2CCOCC2)cc1Nc1ncc(C(F)(F)F)c(NCCCN2CCCCC2=O)n1 [Example 32, 1-[3-[[2-(2-Methoxy-5-morpholino-anilino)-5-(trifluoromethyl)pyrimidin-4-yl]amino]propyl]piperidin-2-one], which IC50 is on record?
A: ≥ 1000 nM

Q: With COc1cc2c(cc1Nc1ncc(C(F)(F)F)c(NCCCNC(=O)C3CCC3)n1)CNCC2 [Example 82, N-[3-[[2-[(6-methoxy-1,2,3,4-tetrahydroisoquinolin-7-yl)amino]-5-(trifluoromethyl)pyrimidin-4-yl]amino]propyl]cyclobutanecarboxamide] as the molecule, how does the IC50 read?
A: < 200 nM

Q: COc1cc2c(cc1Nc1ncc(C(F)(F)F)c(NCCCN3CCCCC3=O)n1)CNCC2 [Example 20, 1-[3-[[2-[(6-Methoxy-1,2,3,4-tetrahydroisoquinolin-7-yl)amino]-5-(trifluoromethyl)pyrimidin-4-yl]amino]propyl]piperidin-2-one] was tested. Which IC50 did it give?
A: < 200 nM
